Data on two compounds can be found in patent publication US6413931B1, “Peptide inhibitor of fibrinogen blood clotting” (The Texas A&M University System, priority 1999, dated 2002).

What is called Kd is the constant that tells how readily two partners part at equilibrium.

In one experiment the target is T1, fibrinogen D fragments (Homo sapiens, UniProt P02671+P02675+P02679, DEL434-453).
T1 construct: Fibrinogen D and E fragment were purchased from Calbiochem; purchased Calbiochem (La Jolla, Calif.)
T1 sequence (P02671 130-216 limits assumed): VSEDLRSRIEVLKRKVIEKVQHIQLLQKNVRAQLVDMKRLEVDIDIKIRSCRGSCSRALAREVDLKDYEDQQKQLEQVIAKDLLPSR
T1 sequence (P02675 164-491 limits assumed): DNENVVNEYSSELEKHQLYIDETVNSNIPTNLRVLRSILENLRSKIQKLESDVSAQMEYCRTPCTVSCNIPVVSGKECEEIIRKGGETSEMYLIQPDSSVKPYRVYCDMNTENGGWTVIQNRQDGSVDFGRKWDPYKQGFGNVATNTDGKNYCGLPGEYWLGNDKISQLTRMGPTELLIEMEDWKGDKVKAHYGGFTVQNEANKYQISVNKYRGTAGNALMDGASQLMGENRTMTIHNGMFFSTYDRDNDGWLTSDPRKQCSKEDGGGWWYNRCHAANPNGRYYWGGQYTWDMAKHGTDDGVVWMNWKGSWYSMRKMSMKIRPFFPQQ
T1 sequence (P02679 112-433 limits assumed): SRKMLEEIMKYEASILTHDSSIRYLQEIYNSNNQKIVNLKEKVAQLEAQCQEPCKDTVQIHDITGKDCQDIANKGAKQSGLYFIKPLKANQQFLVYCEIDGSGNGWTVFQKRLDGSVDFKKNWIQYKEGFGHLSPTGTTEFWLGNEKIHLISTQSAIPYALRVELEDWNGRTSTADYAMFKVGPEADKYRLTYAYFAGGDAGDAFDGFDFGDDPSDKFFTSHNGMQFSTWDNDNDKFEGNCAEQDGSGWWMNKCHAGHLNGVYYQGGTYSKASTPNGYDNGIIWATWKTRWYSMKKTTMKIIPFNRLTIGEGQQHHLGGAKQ
The experiment is described as follows: Inhibition binding assay: competition with MBP-MD4 for binding to fibrinogen D fragments. The method, then:
FIG. 8. Competitive binding of MD4 peptide in the interaction of MBP-MD4 to fibrinogen D fragments.
The protocol was based on the enzyme-linked immunosorbant binding assay as described above. However, the inhibitors were mixed with biotin labeled protein and allowed to bind to coated molecules in microtiter wells and incubated for 1 h at room temperature.
To measure the binding affinity of MD4 peptide to fibrinogen D fragments, fluorescence polarization experiments were carried out by incubating fluorescein labeled MD4 peptide with increasing concentration of fibrinogen D fragments and observing the change of polarization. The binding affinity of isolated MD4 peptide to fibrinogen D fragments in the presence of 15 uM ZnCl2 was saturable and the apparent dissociation constant, KD, was (8.4±1.6)×10^−8 M (FIG. 7). Competitive binding to D fragment was compared for a four amino acid peptide, G-P-R-P which is known to bind to fibrinogen γ chain (Pratt, 1997) and to prevent fibrinogen from forming fibrin (Laudano, 1978; Laudano, 1980), reduced and alkylated MD4, unlabeled MD4 peptide, and MBP-MD4. […] MD4 peptide binds to fibrinogen α and β chains in Western ligand binding assays whereas G-P-R-P peptide binds to the γ chain of fibrinogen, therefore, both peptides bound to different sites in D fragment.

Experiment [1] deals with T2, Human Fibrinogen/Bovine Thrombin (Homo sapiens, UniProt P02671+P02675+P02679).
T2 construct: purchased Chromogenix (Sweden)
T2 sequence (P02671 20-629 limits assumed): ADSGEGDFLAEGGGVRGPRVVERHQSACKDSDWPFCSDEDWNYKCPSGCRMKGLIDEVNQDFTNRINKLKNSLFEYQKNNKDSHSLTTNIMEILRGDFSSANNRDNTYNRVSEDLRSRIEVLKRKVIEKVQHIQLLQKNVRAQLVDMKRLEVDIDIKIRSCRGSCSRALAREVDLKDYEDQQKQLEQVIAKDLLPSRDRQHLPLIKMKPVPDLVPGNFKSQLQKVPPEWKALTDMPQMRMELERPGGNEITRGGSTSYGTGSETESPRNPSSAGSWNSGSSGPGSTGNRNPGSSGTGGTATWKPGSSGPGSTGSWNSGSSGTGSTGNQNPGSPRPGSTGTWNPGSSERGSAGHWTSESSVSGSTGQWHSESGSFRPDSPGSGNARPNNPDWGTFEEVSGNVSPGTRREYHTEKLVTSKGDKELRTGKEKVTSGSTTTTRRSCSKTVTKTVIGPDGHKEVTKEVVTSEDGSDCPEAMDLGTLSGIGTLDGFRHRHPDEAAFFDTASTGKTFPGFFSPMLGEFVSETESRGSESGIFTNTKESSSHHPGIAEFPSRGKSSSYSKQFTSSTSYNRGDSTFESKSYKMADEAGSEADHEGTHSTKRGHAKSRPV
T2 sequence (P02675 31-491): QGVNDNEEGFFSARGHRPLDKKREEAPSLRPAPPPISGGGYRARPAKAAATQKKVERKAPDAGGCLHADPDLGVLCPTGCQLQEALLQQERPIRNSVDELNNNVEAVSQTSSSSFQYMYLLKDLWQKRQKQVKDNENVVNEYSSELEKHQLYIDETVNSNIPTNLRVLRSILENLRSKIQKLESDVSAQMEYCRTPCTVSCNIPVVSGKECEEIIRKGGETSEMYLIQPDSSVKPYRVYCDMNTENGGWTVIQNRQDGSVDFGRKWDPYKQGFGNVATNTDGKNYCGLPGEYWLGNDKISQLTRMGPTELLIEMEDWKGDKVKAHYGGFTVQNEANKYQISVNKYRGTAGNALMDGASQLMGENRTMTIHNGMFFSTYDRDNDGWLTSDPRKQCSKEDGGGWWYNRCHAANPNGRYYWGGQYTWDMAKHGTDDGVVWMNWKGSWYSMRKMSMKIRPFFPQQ
T2 sequence (P02679 27-433 limits assumed): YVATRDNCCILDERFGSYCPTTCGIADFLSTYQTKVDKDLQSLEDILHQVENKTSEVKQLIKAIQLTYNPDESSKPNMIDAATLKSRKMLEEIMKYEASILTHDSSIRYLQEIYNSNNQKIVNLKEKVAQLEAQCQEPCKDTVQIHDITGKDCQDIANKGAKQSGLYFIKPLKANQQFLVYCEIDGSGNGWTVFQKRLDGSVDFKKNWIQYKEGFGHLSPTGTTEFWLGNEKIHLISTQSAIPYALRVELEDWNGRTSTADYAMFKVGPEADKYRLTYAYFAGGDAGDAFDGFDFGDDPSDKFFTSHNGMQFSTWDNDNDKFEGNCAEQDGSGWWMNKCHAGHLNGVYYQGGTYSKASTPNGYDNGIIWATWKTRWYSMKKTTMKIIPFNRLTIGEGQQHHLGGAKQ
The experiment is described as follows: Clotting assay (fibrinogen plus thrombin, time to gel-like clot). It is filed as biochemical. To be noted: for Human Fibrinogen/Bovine Thrombin Clotting Time: 1 mg/ml fibrinogen, 1 unit/ml thrombin. The method, then:
These tests were conducted by incubating 1 mg of human fibrinogen with desired peptides in 20 mM Tris-HCl, 150 mM NaCl, pH 7.5 in the presence or absence of Zn^2+ for at least 30 min followed by adding 1 unit of bovine thrombin. The total volume of each reaction was 1 ml and the reaction was observed by counting the time for allowing the solution to form a gel like clot in the test tube.
A four amino acid long peptide, G-P-R-P, binds to the γ chain of fibrinogen D fragment and prolongs the clotting time in a closed system containing fibrinogen and thrombin (Laudano, 1978; Laudano, 1980).

A further experiment concerns the target T3, fibrinogen D fragment (Homo sapiens, UniProt P02671+P02675+P02679, DEL434-453).
T3 construct: G-P-R-P peptide to fibrinogen D fragment
T3 sequence (P02671 130-216 limits assumed): T1 sequence (P02671 130-216 limits assumed)
T3 sequence (P02675 164-491 limits assumed): T1 sequence (P02675 164-491 limits assumed)
T3 sequence (P02679 112-433 limits assumed): T1 sequence (P02679 112-433 limits assumed)
To be noted: Laudano, 1978; read-out: reported binding affinity KD to fibrinogen D fragment; cited from earlier work.

Take G-P-R-P: the “competition with MBP-MD4 for binding to fibrinogen D fragments” value on fibrinogen D fragments is “Neither G-P-R-P peptide, nor reduced and alkylated MD4 peptide could inhibit”. Moreover, the “delay of clot formation” value in experiment [1] (100 uM peptide, fibrinogen and thrombin, 15 uM ZnCl2) turned out to be 10 min. Further, in experiment [1] (peptide 0.1 mM, 20 mM Tris, 150 mM NaCl, 15 μM ZnCl2, pH 7.4), the “Human Fibrinogen/Bovine Thrombin Clotting Time” value stood at 10 min. The dissociation constant Kd at fibrinogen D fragment was 17 µM.
For `O=C(O)CN(CCN(CC(=O)O)CC(=O)O)CC(=O)O` [EDTA], the “Human Fibrinogen/Bovine Thrombin Clotting Time” value in experiment [1] (1 mM EDTA) is 12 min.
